Consider nine compounds from article PMC3166071, “Ancient Antimicrobial Peptides Kill Antibiotic-Resistant Pathogens: Australian Mammals Provide New Options” (PLoS ONE, 2011).

Data set [1] has as its system E. coli DH5α. Kind of data set: microbe, parasite or virus in culture. The format is cell-based, Escherichia coli. The settings on record: for Relative potency of WAM1: against E. coli, WAM1 relative to the antibiotic of the line. As to the method:
(§1) Peptides were synthesized and HPLC purified (AusPep Pty Ltd). The two-stage radial diffusion assay used in this study has been described elsewhere. Briefly, ∼4×10^6 of mid-logarithmic-phase organisms were mixed into 10 ml of warm 0.8% agarose containing 0.03% (w/v) Trypticase soy broth (TSB) powder buffered with 10 mM sodium phosphate, pH 7.4. The synthetic peptides were serially diluted in 0.01% acetic acid and 5 µl peptide samples were loaded in 2.5 mm diameter wells. The plates were covered, and incubated at 37°C. After 3 hours, a 10 ml overlay gel composed of 6% TSB, 0.8% agarose in 10 mM sodium phosphate buffer (pH 7.4) was poured onto the plates. The plates were incubated overnight to allow the surviving organisms to form microcolonies. The clear zone was measured using a magnified transilluminator and expressed in units (1 mm = 10 U) after subtracting the well diameter. The MIC is defined by the χ intercept of a regression line through zone diameters obtained from a series of serially diluted peptide samples. For multidrug-resistant bacteria, MICs were measured as described by micro-broth dilution in Mueller-Hinton broth (Oxoid, Hampshire, England) according to according to Clinical and Laboratory Standards Institute (CLSI) standards. The MIC measurements were performed in duplicate and the data incorporated into a final MIC using standard methods. All the bacterial strains were tested on at least two different occasions. Mid-logarithmic phase cultures of P. aeruginosa 19056 muc were diluted in Mueller–Hinton broth to yield approximately 10^6 cfu/ml. Peptides were added at the indicated concentrations and the suspensions were then incubated for different times in a shaking water bath at 35°C. At the end of each incubation time, the samples were serially diluted in buffered saline and plated onto nutrient agar with a spiral plater (Don Whitley Scientific, Australia). Colonies were counted after 17–22 h incubation at 35°C using an automatic colony counter (Don Whitley Scientific, Australia).

In data set [2] the test system is B. subtilis. The format is cell-based, Bacillus subtilis. As to the method: as §1
For data set [3], the system named is Sal. enterica (ATCC 14028). The format is cell-based. As to the method: as §1
Data set [4] concerns Strep. pyogenes (ATCC 19615). The format is cell-based. As to the method: as §1
The subject of data set [5] is C. albicans (ATCC 753). The format is cell-based, Candida albicans. As to the method: as §1
The test system of data set [6] is Strep. uberis. It is filed as cell-based, Streptococcus uberis. The procedure: as §1
Data set [7] has as its system S. aureus (ATCC 25923). It is filed as cell-based, Staphylococcus aureus. The settings on record: ATCC 25923, 3 h, pH 7.4. The procedure: as §1
Data set [8] concerns P. aeruginosa. The format is cell-based, Pseudomonas aeruginosa. The settings on record: 3 h. As to the method:
as §1

Data set [9] concerns P. aeruginosa (ATCC 27853). The format is cell-based, Pseudomonas aeruginosa. The following applies: ATCC 27853, 3 h, pH 7.4. As to the method: as §1
In data set [10] the test system is K. pneumoniae. It is filed as cell-based, Klebsiella pneumoniae. The following applies: 3 h. As to the method:
Figure 3 Time course of K. pneumoniae killing by WAM1 in broth. Time marked in minutes. […] Antimicrobial assays were performed as described previously.
Peptides were synthesized and HPLC purified (AusPep Pty Ltd). The two-stage radial diffusion assay used in this study has been described elsewhere. Briefly, ∼4×10^6 of mid-logarithmic-phase organisms were mixed into 10 ml of warm 0.8% agarose containing 0.03% (w/v) Trypticase soy broth (TSB) powder buffered with 10 mM sodium phosphate, pH 7.4. The synthetic peptides were serially diluted in 0.01% acetic acid and 5 µl peptide samples were loaded in 2.5 mm diameter wells. The plates were covered, and incubated at 37°C. After 3 hours, a 10 ml overlay gel composed of 6% TSB, 0.8% agarose in 10 mM sodium phosphate buffer (pH 7.4) was poured onto the plates. The plates were incubated overnight to allow the surviving organisms to form microcolonies. The clear zone was measured using a magnified transilluminator and expressed in units (1 mm = 10 U) after subtracting the well diameter. […] For multidrug-resistant bacteria, MICs were measured as described by micro-broth dilution in Mueller-Hinton broth (Oxoid, Hampshire, England) according to according to Clinical and Laboratory Standards Institute (CLSI) standards. […] Colonies were counted after 17–22 h incubation at 35°C using an automatic colony counter (Don Whitley Scientific, Australia).

The test system of data set [11] is A. baumannii. It is filed as cell-based, Acinetobacter baumannii. The following applies: 3 h. The procedure: as §1
For data set [12], the system named is human red blood cells. The format is cell-based. The procedure: Figure 4 Toxicity of WAM1 on human red blood cells. Haemolytic activity was determined by treating human red blood cells with different concentrations of WAM1 and haemoglobin release measured by absorbance at 450 nm. Samples were incubated at 37°C for 1 hour. PBS and 1% Tween-20 were used as negative and positive controls, representing 0% and 100% hemolytic activity respectively.

The subject of data set [13] is K. pneumoniae. The format is cell-based, Klebsiella pneumoniae. The following applies: 3 h. As to the method: as §1
The source holds these as a separate data set.

Setting [14] is: Escherichia coli, Table 2, against E. coli, comparison of WAM1 with antibiotics, read-out: MIC.
Where [15] appears, read: DH5α, 3 h, pH 7.4, read-out: MIC.

In brackets after ≈: the same amount, converted by molar mass. Read-outs that look alike come from different tables or passages of the source. Where no end group is shown, it is not given here. Where only a bound is given, the exact number is not on record here.

Turning to `CC1(C)S[C@@H]2[C@H](NC(=O)[C@H](N)c3ccccc3)C(=O)N2[C@H]1C(=O)O` [Ampicillin], in data set [1] (setting [14]), the MIC came out at 5.7 µM (≈ 1.99 µg/mL). For the same compound, the “Relative potency of WAM1” value in data set [1] turned out to be 12 x.
`O=C(N[C@H](CO)[C@H](O)c1ccc([N+](=O)[O-])cc1)C(Cl)Cl` [Chloramphenicol] gave an MIC in data set [1] (Escherichia coli) of 12.4 µM (≈ 4.01 µg/mL). The “Relative potency of WAM1” value in [1] is 26 x.
Take `CC[C@H](C)[C@H](NC(=O)[C@H](CCCCN)NC(=O)[C@H](CCC(=O)O)NC(=O)[C@H](CCCCN)NC(=O)[C@H](CO)NC(=O)[C@H](CCCCN)NC(=O)[C@H](CCCNC(=N)N)NC(=O)[C@H](Cc1ccccc1)NC(=O)[C@H](Cc1ccccc1)NC(=O)[C@H](CC(=O)O)NC(=O)CNC(=O)[C@H](CC(C)C)NC(=O)[C@@H](N)CC(C)C)C(=O)NCC(=O)N[C@@H](CCCCN)C(=O)N[C@@H](CCC(=O)O)C(=O)N[C@@H](Cc1ccccc1)C(=O)N[C@@H](CCCCN)C(=O)N[C@@H](CCCNC(=N)N)C(=O)N[C@H](C(=O)N[C@H](C(=O)N[C@@H](CCC(N)=O)C(=O)N[C@@H](CCCNC(=N)N)C(=O)N[C@H](C(=O)N[C@@H](CCCCN)C(=O)N[C@@H](CC(=O)O)C(=O)N[C@@H](Cc1ccccc1)C(=O)N[C@@H](CC(C)C)C(=O)N[C@@H](CCCNC(=N)N)C(=O)N[C@@H](CC(N)=O)C(=O)N[C@@H](CC(C)C)C(=O)N[C@H](C(=O)N1CCC[C@H]1C(=O)N[C@@H](CCCNC(=N)N)C(=O)N[C@H](C(=O)N[C@@H](CCC(=O)O)C(=O)N[C@@H](CO)C(=O)O)[C@@H](C)O)C(C)C)[C@@H](C)CC)C(C)C)[C@@H](C)CC` [LL37, reference compound]: the MIC was 5.57 µM (≈ 25 µg/mL) in [1] (E. coli DH5α, two-stage radial diffusion, 0.8% agarose, 0.03% TSB, 10 mM sodium phosphate pH 7.4, 37°C, MIC = x intercept of regression line of zone diameters, read-out: MIC); 8.62 µM (≈ 38.7 µg/mL) in data set [2] (B. subtilis, two-stage radial diffusion, 10 mM sodium phosphate pH 7.4, 37°C); 4.30 µM (≈ 19.3 µg/mL) in data set [3] (Sal. enterica (ATCC 14028), two-stage radial diffusion, 10 mM sodium phosphate pH 7.4, 37°C); greater than 55 µM in data set [4] (Strep. pyogenes (ATCC 19615), two-stage radial diffusion, 10 mM sodium phosphate pH 7.4, 37°C); greater than 56 µM in [5] (C. albicans (ATCC 753), two-stage radial diffusion, 10 mM sodium phosphate pH 7.4, 37°C); 2.24 µM (≈ 10.1 µg/mL) in [6] (Strep. uberis, two-stage radial diffusion, 10 mM sodium phosphate pH 7.4, 37°C).
In the case of `CN(C)[C@@H]1C(O)=C(C(N)=O)C(=O)[C@@]2(O)C(O)=C3C(=O)c4c(O)cccc4[C@@](C)(O)[C@H]3C[C@@H]12` [Tetracycline], the MIC in data set [1] (setting [14]) stood at 4.5 µM (≈ 2 µg/mL). In addition, in [1], the “Relative potency of WAM1” value is recorded as 10 x.
As to “KRGFGKKLRKRLKKFRNSIKKRLKNFNVVIPIPLPG [WAM1]”, the MIC turned out to be 0.47 µM in [1] (setting [15]); 0.47 µM in data set [1] (DH5α, 3 h, read-out: MIC); 1.01 µM in data set [7]; 0.77 µM in [9]; 1.50 µM in data set [2] (3 h, pH 7.4); 1.14 µM in data set [3] (ATCC 14028, 3 h, pH 7.4). For the same compound, the MIC came out at 0.66 µM in data set [4] (ATCC 19615, 3 h, pH 7.4); 1.30 µM in data set [5] (ATCC 753, 3 h, pH 7.4); 1.22 µM in [6] (3 h, pH 7.4). Moreover, the “MIC 0 mM NaCl” value is on record as 0.9 µM in data set [8], 1.9 µM in data set [11] and 0.5 µM in [13]. In addition, the “MIC 150 mM NaCl” value in [8] is 0.9 µM; in data set [11] it was 1.9 µM; in [13] it was 0.9 µM. The “MIC 200 mM NaCl” value in data set [8] turned out to be 0.9 µM; in data set [11], 3.8 µM; in [13] it was 0.9 µM. In addition, the K. pneumoniae killed in data set [10] was 99.9%. Moreover, the “Haemolytic activity against human red blood cells” value in data set [12] is “not hemolytic”.
For the compound “KRGLWESLKRKATKLGDDIRNTLRNFKIKFPVPRQG [WAM2]”, the MIC was 1.46 µM in data set [1] (setting [15]); 1.39 µM in data set [7]; 1.29 µM in [9]; 2.14 µM in data set [2] (3 h, pH 7.4); 1.58 µM in [3] (ATCC 14028, 3 h, pH 7.4); 0.39 µM in [4] (ATCC 19615, 3 h, pH 7.4). Further, the MIC is given as 1.47 µM in [5] (ATCC 753, 3 h, pH 7.4) and 0.63 µM in [6] (3 h, pH 7.4).
On to RPWAGNGSVHRYTVLSPRLKTQ [PAM2], for which the MIC was found to be 0.87 µM in data set [1] (setting [15]); 2.42 µM in data set [7]; 0.73 µM in data set [9]; 3.37 µM in [2] (3 h, pH 7.4); 1.11 µM in data set [3] (ATCC 14028, 3 h, pH 7.4); 0.83 µM in [4] (ATCC 19615, 3 h, pH 7.4). Besides, the MIC in data set [5] (ATCC 753, 3 h, pH 7.4) amounted to 2.50 µM; in data set [6] (3 h, pH 7.4) it was 0.51 µM.
As to “RRGFWKRLRRRLRRFGDRIRNRFRNFREKLPDPFPG [Ancestral WAM]”, the MIC in [1] (setting [15]) is 0.41 µM; in data set [7] it was 1.42 µM; in data set [9], 2.06 µM; in data set [2] (3 h, pH 7.4), 1.56 µM; in [3] (ATCC 14028, 3 h, pH 7.4), 0.96 µM; in [4] (ATCC 19615, 3 h, pH 7.4), 0.68 µM. Further, the MIC worked out at 6.45 µM in [5] (ATCC 753, 3 h, pH 7.4) and 0.07 µM in data set [6] (3 h, pH 7.4).
As for “RTKRRIKLIKNGVKKVKDILKNNNIIILPGSNEK [PAM1]”, the MIC in [1] (setting [15]) came out at 0.75 µM; in data set [7], 0.56 µM; in data set [9], 1.89 µM; in data set [2] (3 h, pH 7.4), 1.96 µM; in data set [3] (ATCC 14028, 3 h, pH 7.4), 0.47 µM; in [4] (ATCC 19615, 3 h, pH 7.4) it was 0.73 µM. Moreover, the MIC was greater than 20 µM in data set [5] (ATCC 753, 3 h, pH 7.4) and 0.25 µM in data set [6] (3 h, pH 7.4).
